Read-outs that look alike come from different tables or passages of the source.
Key:
[1] = Pharmacokinetic study in male and female rats (single dose iv or po); assay type: in vivo, rat; conditions: for Cmax / bioavailability / Tmax: plasma; for Cmax: read-out: Cmax; for Tmax: read-out: Tmax (converted)
Method: Compound A(−), DAPD, and DXG were administrated as a single dose, either intravenously through the jugular vein at 10 mg/kg or orally at 20, 125, 500, 1000 or 2000 mg/kg. All rats were fasted for 12 hours prior to po dosing treatment. The vehicle used for both iv and po administrations was 0.1% carboxymethylcellulose and 0.1% Tween 80 in distilled water, acidified to pH 3.15 with 1N HCl. Blood samples were taken from rats at the times shown in the schedule below for all oral dosing. From a total of 10 rats for each administration, seven time points were taken for the intravenous through the jugular vein dosing (2, 5, 15, 30, 60, 120 and 240 min) and for the oral dosing (5-360 min) at 20 mg/kg, whereas two additional time points at 480 and 1440 min were taken for the oral doses of 125-2000 mg/kg. As a result, each time point was in quadruplicate, except for the 1440 minute time point when blood samples were taken through the jugular vein from all the rats prior to being euthanized.
Blood samples (1 ml) were collected from the rat tails into a vacutainer containing EDTA (3 ml) for both iv and po administrations. Plasma samples were prepared by centrifugation at 2000×g for 15 minutes at 4° C.
Plasma samples (diluted to 1 ml with water) were loaded onto the Abselut Nexus sorbent (#1210-3100) and drawn through under low vacuum (approximately 5′′ Hg). One milliliter of deionized water was added to the sorbent and drawn through under vacuum. The extraction column was dried for 1 minute using a high vacuum (>10′′ Hg). One milliliter of methanol was added to the Abselut Nexus column and the eluent was collected at 1-2 ml/min. The eluent was evaporated to dryness using a Speed Vac, and the samples were reconstituted in 120 μl H2O; 100 μl was used for injection.

[2] = test system: HepG2 cells; assay: Mitochondria DNA toxicity assay; assay type: cell-based; conditions: 28 days, up to 100 μM, the highest concentration tested (FIG. 1)
Method: Mitochondria DNA (mtDNA) toxicity of the compound A (−) was tested in HepG2 cells. The cells were cultured for 28 days under the compound treatment. Th cells were passaged once a week. However, the cell culture medium containing proper concentration of the compound was changed twice a week. Zalcitabine was used as a control. The toxicity was determined by measuring content ratio of mtDNA and nuclear DNA (28s rDNA) by a southern hybridization assay (de Muys et al., 1999). […]

Nc1nc(NC2CC2)c2ncn([C@H]3CO[C@@H](CO)O3)c2n1 [Compound A (-), (−)-(2R,4R)-2-hydroxymethyl-4-(2′-amino-6′-cyclopropylamino-purine-9′-yl)-1,3-dioxolane]
AUG ([1]; female rat, iv 10 mg/kg): 328 µg·min/mL | T-half elimination ([1]; female rat, iv 10 mg/kg): 36.9 min | AUG ([1]; female rat, po 20 mg/kg): 602 µg·min/mL | T-half elimination ([1]; female rat, po 20 mg/kg): 57.1 min | AUG ([1]; male rat, iv 10 mg/kg): 304 µg·min/mL | T-half elimination ([1]; male rat, iv 10 mg/kg): 34.2 min | AUG ([1]; male rat, po 20 mg/kg): 600 µg·min/mL | T-half elimination ([1]; male rat, po 20 mg/kg): 72.5 min | Cmax ([1]; female rat, iv 10 mg/kg): 22900 ng/mL | bioavailability ([1]; female rat, po 20 mg/kg): 92% | Cmax ([1]; female rat, po 20 mg/kg): 5500 ng/mL | Tmax ([1]; female rat, po 20 mg/kg): 22.8 min | Cmax ([1]; male rat, iv 10 mg/kg): 19200 ng/mL | bioavailability ([1]; male rat, po 20 mg/kg): 99% | Cmax ([1]; male rat, po 20 mg/kg): 4600 ng/mL | Tmax ([1]; male rat, po 20 mg/kg): 23.4 min | mtDNA toxicity (content ratio of mtDNA and nuclear DNA, southern hybridization) [2]: did not show significant mtDNA toxicity

— US20010049372A1, “Antiviral nucleoside analogues” (BioChem Pharma Inc., priority 1998, published 2001)
